Measured values: ChEMBL document CHEMBL3045185, “Characterization of metabolites of fungicidal cymoxanil in a sensitive strain of Botrytis cinerea” (J Agric Food Chem, 2008)
In brackets after ≈: the same amount, converted by molar mass.

Tests used:
Botrytis cinerea = assay: Fungicidal activity against drug sensitive Botryotinia fuckeliana assessed as inhibition of germ tube elongation; type: functional, organism-based
[1] = Half life in soil assessed as compound degradation through hydrolysis and microbial degradation
[2] = Half life in drug sensitive Botryotinia fuckeliana cultures; settings: botrytis cinerea, in vivo
[3] = Botrytis cinerea, read-out: EC50

Row | SMILES | EC50 (Botrytis cinerea; [3]) | EC50 (Botrytis cinerea) | half-life [1] | half-life [2]
1 | CC(=O)NC(C#N)C(=O)O (configuration not stated) | 0.025 µg/mL (≈ 0.176 µM) |  |  | 
2 | CCNC(=O)N1C(=O)C(C#N)=NC1(C)C |  | Not Active |  | 
3 | CCN1C(=O)NC(=O)C1=O |  | Not Active |  | 
4 | CCN1C(=O)NC(=O)/C1=N/OC |  | Not Active |  | 
5 | CCNC(=O)NC(=O)/C(C#N)=N/OC [CYMOXANIL] | 0.25 µg/mL (≈ 1.26 µM) |  | < 48 h | ≤ 2 h
